Measured values reported in ChEMBL document CHEMBL1201861, “Genomics of Drug Sensitity in Cancer screening data, Wellcome Trust Sanger Institute”.

How the values were obtained:
Assay in all cases: cells
[1] = test system: KE-37; type: functional, cell-based, Homo sapiens; conditions: Homo sapiens, KE-37;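 note: growth inhibition of KE-37 cells, read out with a cell viability assay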
Description: SANGER: Inhibition of human KE-37 cell growth in a cell viability assay.

[2] = test system: JAR; type: functional, cell-based, Homo sapiens; conditions: Homo sapiens, JAR;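 note: growth inhibition of human JAR cells determined with a cell viability assay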
Description: SANGER: Inhibition of human JAR cell growth in a cell viability assay.

[3] = test system: MC116; type: functional, cell-based, Homo sapiens; conditions: Homo sapiens, MC116;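 note: growth inhibition of MC116 cells, read out with a cell viability assay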
Description: SANGER: Inhibition of human MC116 cell growth in a cell viability assay.

[4] = test system: ONS-76; type: functional, cell-based, Homo sapiens; conditions: Homo sapiens, ONS-76;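 note: growth inhibition of human ONS-76 cells, read out with a cell viability assay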
Description: SANGER: Inhibition of human ONS-76 cell growth in a cell viability assay.

[5] = test system: KG-1; type: functional, cell-based, Homo sapiens; conditions: Homo sapiens, KG-1;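 note: growth inhibition of KG-1 cells, read out by a cell viability assay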
Description: SANGER: Inhibition of human KG-1 cell growth in a cell viability assay.

[6] = test system: NB5; type: functional, cell-based, Homo sapiens; conditions: Homo sapiens, NB5;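 note: growth inhibition of NB5 cells, read out as cell viability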
Description: SANGER: Inhibition of human NB5 cell growth in a cell viability assay.

[7] = test system: DB; type: functional, cell-based, Homo sapiens; conditions: Homo sapiens, DB
Description: SANGER: Inhibition of human DB cell growth in a cell viability assay.

[8] = test system: Calu-6; type: functional, cell-based, Homo sapiens; conditions: Homo sapiens, Calu-6;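 note: growth of human Calu-6 cells, read out by a cell viability assay, IC50 marking inhibition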
Description: SANGER: Inhibition of human Calu-6 cell growth in a cell viability assay.

[9] = test system: A253 cell line; type: functional, cell-based, Homo sapiens; conditions: Homo sapiens, A253;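 note: growth inhibition of A253 cells, read out with a cell viability assay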
Description: SANGER: Inhibition of human A253 cell growth in a cell viability assay.

[10] = test system: HuTu80; type: functional, cell-based, Homo sapiens, HUTU-80; conditions: Homo sapiens, HuTu80;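 note: growth inhibition of HuTu80 human cells, determined with a cell viability readout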
Description: SANGER: Inhibition of human HUTU-80 cell growth in a cell viability assay.

[11] = test system: COLO-668; type: functional, cell-based, Homo sapiens; conditions: Homo sapiens, COLO-668
Description: SANGER: Inhibition of human COLO-668 cell growth in a cell viability assay.

[12] = test system: HCE-T; type: functional, cell-based, Homo sapiens; conditions: Homo sapiens, HCE-T;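 note: cell viability assay read-out, reporting inhibition of HCE-T cell growth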
Description: SANGER: Inhibition of human HCE-T cell growth in a cell viability assay.

[13] = test system: LS-513; type: functional, cell-based, Homo sapiens; conditions: Homo sapiens, LS-513
Description: SANGER: Inhibition of human LS-513 cell growth in a cell viability assay.

[14] = test system: MLMA; type: functional, cell-based, Homo sapiens; conditions: Homo sapiens, MLMA;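 note: growth inhibition of MLMA cells (human), determined through a cell viability readout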
Description: SANGER: Inhibition of human MLMA cell growth in a cell viability assay.

[15] = test system: NB69; type: functional, cell-based, Homo sapiens; conditions: Homo sapiens, NB69;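 note: growth inhibition of NB69 cells, determined by a cell viability assay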
Description: SANGER: Inhibition of human NB69 cell growth in a cell viability assay.

[16] = test system: KURAMOCHI; type: functional, cell-based, Homo sapiens; conditions: Homo sapiens, KURAMOCHI;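 note: growth inhibition of KURAMOCHI cells, read out with a cell viability assay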
Description: SANGER: Inhibition of human KURAMOCHI cell growth in a cell viability assay.

[17] = test system: NKM-1; type: functional, cell-based, Homo sapiens; conditions: Homo sapiens, NKM-1;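 note: growth inhibition of NKM-1 cells, read out with a cell viability assay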
Description: SANGER: Inhibition of human NKM-1 cell growth in a cell viability assay.

[18] = test system: ACN; type: functional, cell-based, Homo sapiens; conditions: Homo sapiens, ACN;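 note: growth inhibition of the human ACN cell line, read out via cell viability testing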
Description: SANGER: Inhibition of human ACN cell growth in a cell viability assay.

[19] = test system: LNCaP-Clone-FGC; type: functional, cell-based, Homo sapiens; conditions: Homo sapiens, LNCaP-Clone-FGC
Description: SANGER: Inhibition of human LNCaP-Clone-FGC cell growth in a cell viability assay.

[20] = test system: 697; type: functional, cell-based, Homo sapiens; conditions: Homo sapiens
Description: SANGER: Inhibition of human 697 cell growth in a cell viability assay.

[21] = test system: MZ2-MEL; type: functional, cell-based, Homo sapiens; conditions: Homo sapiens, MZ2-MEL;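 note: growth inhibition of MZ2-MEL cells read out with a cell viability assay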
Description: SANGER: Inhibition of human MZ2-MEL cell growth in a cell viability assay.

[22] = test system: RCC10RGB; type: functional, cell-based, Homo sapiens; conditions: Homo sapiens, RCC10RGB;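 note: growth inhibition of human RCC10RGB cells, read out by a cell viability assay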
Description: SANGER: Inhibition of human RCC10RGB cell growth in a cell viability assay.

[23] = test system: Lu-65; type: functional, cell-based, Homo sapiens; conditions: Homo sapiens, Lu-65;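 note: growth inhibition of Lu-65 cancer cells, read out by a cell viability assay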
Description: SANGER: Inhibition of human LU-65 cell growth in a cell viability assay.

[24] = test system: GT3TKB; type: functional, cell-based, Homo sapiens; conditions: Homo sapiens, GT3TKB;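 note: growth inhibition of the cell line, read out with a cell viability assay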
Description: SANGER: Inhibition of human GT3TKB cell growth in a cell viability assay.

[25] = test system: HT; type: functional, cell-based, Homo sapiens; conditions: Homo sapiens, HT
Description: SANGER: Inhibition of human HT cell growth in a cell viability assay.

[26] = test system: OMC-1; type: functional, cell-based, Homo sapiens; conditions: Homo sapiens, OMC-1;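 note: growth inhibition of the OMC-1 cell line, measured by a cell viability assay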
Description: SANGER: Inhibition of human OMC-1 cell growth in a cell viability assay.

[27] = test system: MZ7-mel; type: functional, cell-based, Homo sapiens; conditions: Homo sapiens, MZ7-mel;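 note: growth inhibition of human MZ7-mel cells, measured by a cell viability assay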
Description: SANGER: Inhibition of human MZ7-mel cell growth in a cell viability assay.

[28] = test system: MHH-PREB-1; type: functional, cell-based, Homo sapiens; conditions: Homo sapiens, MHH-PREB-1;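 note: cell viability assay measuring inhibition of proliferation of human MHH-PREB-1 cells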
Description: SANGER: Inhibition of human MHH-PREB-1 cell growth in a cell viability assay.

[29] = test system: TE-8; type: functional, cell-based, Homo sapiens; conditions: Homo sapiens, TE-8;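 note: growth inhibition of TE-8 cells, measured with a cell viability readout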
Description: SANGER: Inhibition of human TE-8 cell growth in a cell viability assay.

[30] = test system: KP-N-YS; type: functional, cell-based, Homo sapiens; conditions: Homo sapiens, KP-N-YS;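 note: cell viability assay measuring inhibition of cell line growth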
Description: SANGER: Inhibition of human KP-N-YS cell growth in a cell viability assay.

[31] = test system: LC-2-ad; type: functional, cell-based, Homo sapiens; conditions: Homo sapiens, LC-2-ad;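 note: growth inhibition of human LC-2-ad cells, read out with a cell viability assay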
Description: SANGER: Inhibition of human LC-2-ad cell growth in a cell viability assay.

[32] = test system: LU-134-A; type: functional, cell-based, Homo sapiens; conditions: Homo sapiens, LU-134-A
Description: SANGER: Inhibition of human LU-134-A cell growth in a cell viability assay.

[33] = test system: NCI-H446; type: functional, cell-based, Homo sapiens; conditions: Homo sapiens, NCI-H446;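 note: growth inhibition of NCI-H446 cells determined by a cell viability assay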
Description: SANGER: Inhibition of human NCI-H446 cell growth in a cell viability assay.

[34] = test system: SW872; type: functional, cell-based, Homo sapiens; conditions: Homo sapiens, SW872;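 note: growth inhibition of SW872 cells, read out by a viability assay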
Description: SANGER: Inhibition of human SW872 cell growth in a cell viability assay.

[35] = test system: D-263MG; type: functional, cell-based, Homo sapiens; conditions: Homo sapiens, D-263MG
Description: SANGER: Inhibition of human D-263MG cell growth in a cell viability assay.

[36] = test system: C8166; type: functional, cell-based, Homo sapiens; conditions: Homo sapiens, C8166;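 note: growth inhibition of human C8166 cells measured by a cell viability assay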
Description: SANGER: Inhibition of human C8166 cell growth in a cell viability assay.

[37] = test system: SK-UT-1; type: functional, cell-based, Homo sapiens; conditions: Homo sapiens, SK-UT-1;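 note: growth inhibition of SK-UT-1 cells, measured by a cell viability assay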
Description: SANGER: Inhibition of human SK-UT-1 cell growth in a cell viability assay.

[38] = test system: NB12; type: functional, cell-based, Homo sapiens; conditions: Homo sapiens, NB12;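 note: growth inhibition of human NB12 cells, read out by a cell viability assay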
Description: SANGER: Inhibition of human NB12 cell growth in a cell viability assay.

[39] = test system: JVM-2; type: functional, cell-based, Homo sapiens; conditions: Homo sapiens, JVM-2;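 note: growth inhibition of JVM-2 cells determined by a cell viability assay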
Description: SANGER: Inhibition of human JVM-2 cell growth in a cell viability assay.

[40] = test system: A101D; type: functional, cell-based, Homo sapiens; conditions: Homo sapiens, A101D;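 note: growth inhibition of the cell line, measured with a viability assay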
Description: SANGER: Inhibition of human A101D cell growth in a cell viability assay.

[41] = test system: GI-1; type: functional, cell-based, Homo sapiens; conditions: Homo sapiens, GI-1;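 note: growth inhibition of human GI-1 cells, measured with a cell viability readout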
Description: SANGER: Inhibition of human GI-1 cell growth in a cell viability assay.

[42] = test system: CW-2; type: functional, cell-based, Homo sapiens; conditions: Homo sapiens, CW-2;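 note: growth inhibition of CW-2 cells, read out by a cell viability assay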
Description: SANGER: Inhibition of human CW-2 cell growth in a cell viability assay.

[43] = test system: TE-1; type: functional, cell-based, Homo sapiens; conditions: Homo sapiens, TE-1;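 note: growth inhibition of the human TE-1 cell line, read out with a cell viability assay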
Description: SANGER: Inhibition of human TE-1 cell growth in a cell viability assay.

[44] = test system: L-428; type: functional, cell-based, Homo sapiens; conditions: Homo sapiens, L-428
Description: SANGER: Inhibition of human L-428 cell growth in a cell viability assay.

[45] = test system: DEL; type: functional, cell-based, Homo sapiens; conditions: Homo sapiens, DEL;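 note: growth inhibition of the human DEL cell line, read out with a cell viability assay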
Description: SANGER: Inhibition of human DEL cell growth in a cell viability assay.

[46] = test system: MMAC-SF; type: functional, cell-based, Homo sapiens; conditions: Homo sapiens, MMAC-SF;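 note: growth inhibition of human MMAC-SF cells, read out with a cell viability assay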
Description: SANGER: Inhibition of human MMAC-SF cell growth in a cell viability assay.

[47] = test system: SF-539; type: functional, cell-based, Homo sapiens; conditions: Homo sapiens, SF-539;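 note: Read-out is a cell viability assay, with IC50 reflecting inhibition of cell growth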
Description: SANGER: Inhibition of human SF539 cell growth in a cell viability assay.

[48] = test system: KU812 cell line; type: functional, cell-based, Homo sapiens; conditions: Homo sapiens, KU812;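 note: growth inhibition of KU812 cells, read out with a cell viability assay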
Description: SANGER: Inhibition of human KU812 cell growth in a cell viability assay.

[49] = test system: LB2518-MEL; type: functional, cell-based, Homo sapiens; conditions: Homo sapiens, LB2518-MEL;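 note: growth inhibition of human LB2518-MEL cells, measured with a cell viability assay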
Description: SANGER: Inhibition of human LB2518-MEL cell growth in a cell viability assay.

[50] = test system: SNB-75; type: functional, cell-based, Homo sapiens; conditions: Homo sapiens, SNB-75;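 note: cell viability assay measuring growth inhibition of human SNB-75 cells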
Description: SANGER: Inhibition of human SNB75 cell growth in a cell viability assay.

## Cc1cc([N+](=O)[O-])ccc1NS(=O)(=O)c1cc(Cl)ccc1Cl
[1]
  IC50: > 32 µM
[2]
  IC50: 23 µM
[3]
  IC50: 3.14 µM
[4]
  IC50: 6.44 µM
[5]
  IC50: 7 µM
[6]
  IC50: 14.5 µM
[7]
  IC50: 8.17 µM
[8]
  IC50: 0.831 µM
[9]
  IC50: 5.93 µM
[10]
  IC50: 1.15 µM
[11]
  IC50: 4.48 µM
[12]
  IC50: 9.59 µM
[13]
  IC50: 14.5 µM
[14]
  IC50: 8.96 µM
[15]
  IC50: 31.3 µM
[16]
  IC50: 1.33 µM
[17]
  IC50: 10.2 µM
[18]
  IC50: 3.71 µM
[19]
  IC50: 21.6 µM
[20]
  IC50: > 32 µM
[21]
  IC50: 1.44 µM
[22]
  IC50: > 32 µM
[23]
  IC50: 31.8 µM
[24]
  IC50: 2.9 µM
[25]
  IC50: 2.75 µM
[26]
  IC50: 8.57 µM
[27]
  IC50: 3.39 µM
[28]
  IC50: 5.95 µM
[29]
  IC50: 5.76 µM
[30]
  IC50: 15.9 µM
[31]
  IC50: 4.63 µM
[32]
  IC50: > 32 µM
[33]
  IC50: > 32 µM
[34]
  IC50: 4.95 µM
[35]
  IC50: 10.7 µM
[36]
  IC50: 6.1 µM
[37]
  IC50: 1.96 µM
[38]
  IC50: 11.1 µM
[39]
  IC50: > 32 µM
[40]
  IC50: 4.55 µM
[41]
  IC50: 1.43 µM
[42]
  IC50: > 32 µM
[43]
  IC50: 7.65 µM
[44]
  IC50: > 32 µM
[45]
  IC50: 6.68 µM
[46]
  IC50: 3.92 µM
[47]
  IC50: 21 µM
[48]
  IC50: 7.2 µM
[49]
  IC50: 1.16 µM
[50]
  IC50: > 32 µM

## Oc1ccc2ccccc2c1SSc1c(O)ccc2ccccc12
[1]
  IC50: 3.5 µM
[2]
  IC50: > 32 µM
[3]
  IC50: > 32 µM
[4]
  IC50: > 32 µM
[5]
  IC50: > 32 µM
[6]
  IC50: > 32 µM
[7]
  IC50: 12.7 µM
[8]
  IC50: > 32 µM
[9]
  IC50: > 32 µM
[10]
  IC50: > 32 µM
[11]
  IC50: > 32 µM
[12]
  IC50: > 32 µM
[13]
  IC50: > 32 µM
[14]
  IC50: 29.2 µM
[15]
  IC50: 6.76 µM
[16]
  IC50: > 32 µM
[17]
  IC50: > 32 µM
[18]
  IC50: > 32 µM
[19]
  IC50: > 32 µM
[20]
  IC50: > 32 µM
[21]
  IC50: > 32 µM
[22]
  IC50: > 32 µM
[23]
  IC50: > 32 µM
[24]
  IC50: > 32 µM
[25]
  IC50: > 32 µM
[26]
  IC50: > 32 µM
[27]
  IC50: > 32 µM
[28]
  IC50: 3.47 µM
[29]
  IC50: > 32 µM
[30]
  IC50: > 32 µM
[31]
  IC50: 24.1 µM
[32]
  IC50: > 32 µM
[33]
  IC50: > 32 µM
[34]
  IC50: 7.84 µM
[35]
  IC50: > 32 µM
[36]
  IC50: > 32 µM
[37]
  IC50: > 32 µM
[38]
  IC50: > 32 µM
[39]
  IC50: > 32 µM
[40]
  IC50: > 32 µM
[41]
  IC50: > 32 µM
[42]
  IC50: > 32 µM
[43]
  IC50: > 32 µM
[44]
  IC50: > 32 µM
[45]
  IC50: 9.64 µM
[46]
  IC50: > 32 µM
[47]
  IC50: > 32 µM
[48]
  IC50: 2.76 µM
[49]
  IC50: > 32 µM
[50]
  IC50: > 32 µM

## N#Cc1c(O)c2c(-c3ccc(-c4ccccc4O)cc3)csc2[nH]c1=O
[1]
  IC50: 0.129 µM
[2]
  IC50: > 1.02 µM
[3]
  IC50: 0.1 µM
[4]
  IC50: > 1.02 µM
[5]
  IC50: 0.409 µM
[6]
  IC50: > 1.02 µM
[7]
  IC50: 0.489 µM
[8]
  IC50: > 1.02 µM
[9]
  IC50: > 1.02 µM
[10]
  IC50: > 1.02 µM
[11]
  IC50: > 1.02 µM
[12]
  IC50: > 1.02 µM
[13]
  IC50: > 1.02 µM
[14]
  IC50: 0.234 µM
[15]
  IC50: 0.686 µM
[16]
  IC50: > 1.02 µM
[17]
  IC50: > 1.02 µM
[18]
  IC50: > 1.02 µM
[19]
  IC50: 0.547 µM
[20]
  IC50: > 1.02 µM
[21]
  IC50: > 1.02 µM
[22]
  IC50: > 1.02 µM
[23]
  IC50: 0.52 µM
[24]
  IC50: > 1.02 µM
[25]
  IC50: 0.335 µM
[26]
  IC50: > 1.02 µM
[27]
  IC50: > 1.02 µM
[28]
  IC50: 0.182 µM
[29]
  IC50: > 1.02 µM
[30]
  IC50: > 1.02 µM
[31]
  IC50: > 1.02 µM
[32]
  IC50: 0.231 µM
[33]
  IC50: > 1.02 µM
[34]
  IC50: > 1.02 µM
[35]
  IC50: > 1.02 µM
[36]
  IC50: 0.0662 µM
[37]
  IC50: > 1.02 µM
[38]
  IC50: > 1.02 µM
[39]
  IC50: > 1.02 µM
[40]
  IC50: > 1.02 µM
[41]
  IC50: > 1.02 µM
[42]
  IC50: > 1.02 µM
[43]
  IC50: > 1.02 µM
[44]
  IC50: 0.225 µM
[45]
  IC50: 0.228 µM
[46]
  IC50: > 1.02 µM
[47]
  IC50: > 1.02 µM
[48]
  IC50: > 1.02 µM
[49]
  IC50: > 1.02 µM
[50]
  IC50: > 1.02 µM
